Columns and labels:
[1] = In vitro H2O hydrolysis and oxygen evolution catalyzed by LEAT protein under light; type: biochemical; parameters: key to O2 evolution activity: +: similar O2 evolution activity as that of YFP; ++: higher O2 evolution activity than that of YFP by at least one order of magnitude; weak: lower activity than that of YFP by at least one order of magnitude; conditions: for O2 evolution activity: water hydrolysis and O2 evolution under light, relative to YFP
Procedure: 1.85 ml of 50 mM phosphate buffer (pH6.5) was added in the reaction vessel of Clark-type oxygen electrode, then LEAT proteins (at a final concentration of 0.02-1 μg/ml) and 400 μM 2,3,5-trimethyl-1,4-benzoquinone (TMBQ) or other quinones were sequentially added into the buffer in dark. The oxygen evolution rate was measured under the light with corresponding excitation wave length for LEAT proteins and light intensity at 1-2 μmol m^−2 s^−1.

[2] = Electron donation by pre-illuminated LEAT protein (NAD+/NADP+ reduction); type: biochemical
Procedure: FIG. 1. The effects of light on NAD^+ or NAPD^+ reduction by YFP.
It was reported that proteins such as GFP can function as electron donor to reduce the oxidized small compounds such as NAD^+, potassium ferricyanide, and some proteins such as cytochrome c, and FAD-containing proteins (Bogdanov A. M. et al, 2009, Nature Chemical Biology. 5:459-461), The invertors used E. coli to express and purify recombinant proteins. […] Quinone reduction under light was analyzed by monitoring the decrease of absorption at 436 nm.

[3] = system: Brassica; assay: Growth, biomass and yield of transgenic Brassica; type: in vivo, Brassica napus L.; conditions: T1 transgenic Brassica, vegetative stage
Source text: FIG. 14. (A) WT, empty vector control (pHB) and mCherry transgenic Brassica (L1-L3) were germinated and grown for one week in the phytotron under white light (PPFD:250 μmol m^−2s^−1). Then the plants were moved and grown under white light, green light (PFD: 60 μmol m^−2s^−1) or red+blue light (red light PFD; 60 μmol m^−2s^−1, blue light PFD; 10 μmol m^−2s^−1) for another 3 weeks and photos were taken, (B) Comparison of the fresh weights and dry weights of WT and mCherry transgenic Brassica grown under white light, green light or red+blue light for four weeks. Values in the figures are means±SD, for WT, n=10, for transgenic plant transformed with empty vector control pHB and mCherry, data were the averages of three independent lines and 10 plants for each line. **p≦0.01. (C) Net photosynthetic rate of WT and mCherry transgenic Brassica measured under different light qualities. Nine-week-old WT and mCherry transgenic Brassica grown in the phytotron (PPFD: 250 μmol m^−2s^−1) were transferred and treated with different qualities of light for 4 days and net photosynthetic rate was measured. (D) Net photosynthetic rate of WT and mCherry transgenic Brassica grow in the natural field measured under different PPFD as light source. Net photosynthetic rate was measured in situ between 10:00 am and 12:00 pm. […] FIG. 15. (A) Measurement of the fresh weight and dry weight per plant of 7-week-old WT and mCherry transgenic Brassica plants grown in the natural field conditions. Values in the figures are means±SD, n=10. *p≦0.05, **p≦0.01. (B) Comparison of the plant size, silique size, seed size, grain yield per plant and 1000-seed weight at the harvesting time. Values in the figures are means±SD, n=10. *p≦0.05, **p≦0.01. Wild type (WT), transgenic Brassica with empty vector (pHB) and mCherry transgenic Brassica (L1-L3) were germinated in the phytotron under white light (light intensity: 250 μmol m^−2s^−1) for 1 week. Then the plants were transferred and continued to grow under white light, green light (light intensity: 60 μmol m^−2s^−1), red+blue light (intensity of red light: 60 μmol m^−2s^−1; intensity of blue light: 10 μmol m^−2s^−1). The […] were taken three weeks after transfer.

Substance	O2 evolution activity [1]	plant growth vs WT [3]	further results
YFP: yellow fluorescent protein, amino acid sequence SEQ ID NO: 8	+		water photohydrolysis and O2 evolution activity under light ([1]; TMBQ substituted with DQ or UQ): does not have water photohydrolysis and O2 evolution activity; activity of water hydrolysis among the quinones tested (order) ([1]; different quinones, under light): TMBQ>DMBQ2>MBQ>DMBQ1; function as electron donor under light [2]: cannot continuously provide electrons under light
eqFP611: fluorescent protein from Entacmaea quadricolor (AY130757), SEQ ID NO: 30	+		
mCherrymu3: mCherry mutant S151C S152C K167M, SEQ ID NO: 22		grow better than WT	O2 evolution rate, increase ([1]; vs non-mutated protein, under light): 6 folds
mCherrymu4: mCherry mutant S151C S152C K167M I202A, SEQ ID NO: 24		grow better than WT	
mCherrymu5: mCherry mutant S151C S152C H166N K167M I202A, SEQ ID NO: 26		grow better than WT	
